Key:
[1] = tested on: SU-DHL-4 IBR resistant clones; assay: CTG (CellTiter-Glo) assay, ibrutinib resistant clones; type: cell-based; settings: Homo sapiens, read-out: AVG Cpnd 1 IC50
Method: (§1) Experiments were performed to examine the pathway and gene expression alterations in a cell line resistant to PI3K inhibitors. SU-DHL-4 is a DLBCL cell line. […] Five clones from each group were expanded. Cells were harvested for various assays, including CellTiter-Glo® assays, PD, RNA analysis, DNA analysis, and short tandem repeat (STR) fingerprinting.

SU-DHL-4 control clones = assay: CTG (CellTiter-Glo) assay, control (DMSO-treated) clones; type: cell-based; settings: Homo sapiens, read-out: AVG Cpnd 1 IC50
Method: as §1
(§2) Five clones from each group were expanded. Cells were harvested for various assays, including CTG (CellTiter-Glo, Promega, an assay that measures ATP levels as a surrogate for cell number in order to observe cell viability and changes in proliferation rate), PD (pharmacodynamic), RNA analysis, DNA analysis, and short tandem repeat (STR) fingerprinting. […] See, e.g., FIG. 16.

Bcl-2 family genes = assay: RNAseq gene expression changes in peripheral blood of Compound 1-treated CLL patients; type: in vivo, human
Method: RNAseq technology was used to measure gene expression changes in peripheral blood in patients treated with Compound 1. The patients were treated as part of a clinical trial (identifier NCT01476657) which is a phase 1 study in patients with advanced hematologic malignancies. Briefly, RNA was extracted from 200 ul of blood using TRI reagent, followed by RNA purification using a Zymo-Spin column. Timepoints were taken at baseline and cycle 1 day 8 (C1D8), which is 7 days of Compound 1 treatment. Expression was quantified using both FPKM and VOOM methods. Filters were used to prioritize genes identified during this analysis.

CLL = assay: Compound 1 monotherapy in a patient with CLL (clinical trial); type: in vivo, human; settings: 25 mg bid monotherapy
Method: A patient diagnosed with CLL was treated by a monotherapy of Compound 1 (25 mg bid) in a clinical trial. Serum samples of the patient were collected at various points in the treatment. The copy number of STK11 in the serum samples was determined by CytoScan (Affymetrix).

[2] = tested on: SU-DHL-4 Compound 1 resistant clones; assay: CTG (CellTiter-Glo) assay, Compound 1 resistant clones; type: cell-based; settings: Homo sapiens, Cpnd 1 resistant clones
Method: as §1, §2

[3] = peripheral blood, Compound 1-treated patients, baseline vs C1D8

C[C@H](Nc1ncnc2[nH]cnc12)c1cc2cccc(Cl)c2c(=O)n1-c1ccccc1 [Compound 1, (S)-3-(1-((9H-purin-6-yl)amino)ethyl)-8-chloro-2-phenylisoquinolin-1(2H)-one]
IC50 [1]: 805 ± 339 nM
IC50 (SU-DHL-4 control clones): 241 ± 17 nM
HRK expression level increase (Bcl-2 family genes; many of the patients having stable disease or partial remission, after 7 days of Compound 1 treatment, FIG. 7): at least 1.5 fold
BBC3 (also called PUMA) gene expression change (Bcl-2 family genes; [3]): up-regulated
BIK gene expression change (Bcl-2 family genes; [3]): downregulated
BMF gene expression change (Bcl-2 family genes; [3]): up-regulated
Bcl2L11 (also called BIM) gene expression change (Bcl-2 family genes; [3]): up-regulated
Bcl2 gene expression change (Bcl-2 family genes; [3]): up-regulated
HRK gene expression change (Bcl-2 family genes; [3]): up-regulated
PMAIP1 (also called NOXA) gene expression change (Bcl-2 family genes; [3]): up-regulated
patient response (CLL; after C7 (cycle 7)): progressed
patient response (CLL; at C3D1 (cycle 3, day 1)): partial response
IC50 [2]: 5420 ± 1080 nM

Source: patent US11110096B2, “Combination therapies” (Infinity Pharmaceuticals, Inc., priority 2014, dated 2021)
